Assay results as given in patent US12650424B2, “Method and system for determining intracellular mediators' activity” (ECOLE POLYTECHNIQUE FEDERALE DE LAUSANNE (EPFL), priority 2020, dated 2026).

Columns and labels:
[1] = test system: Protease-activated receptor PAR; test: dose response of GPCR activation in plasma membranes on immunostained WGA-beads (Gαq release); assay type: biochemical; details: plasma membranes of HEK cells on beads; different concentrations
Source text: FIG. 3. Schematic representation of the synthetic GPCR screening platform. 1. […] 2. […] 3. […] This leads to fluorescence labeled Gα-protein subunits. 4. […] 5.

angiotensin receptor = details: plasma membranes of HEK cells on beads

receptor activation triggering release of Gαq [1]	Substance	receptor activation triggering release of Gαi (angiotensin receptor)
activated by different concentrations	thrombin	–
–	angiotensin	activated in a dose-dependent manner
